MIC and Intact data for 15 molecules are collected here from ChEMBL document CHEMBL1139602, “Biological evaluation of Tyr6 and Ser7 modified drosocin analogues” (2005).

One assay concerns Escherichia coli. In words: Minimum inhibitory concentration against Escherichia coli ATCC 11775 strain. The format is functional.
A further assay deals with Cell line. As to the kind of experiment: Percent of intact peptide after 8 hr of digestion in 25% human serum. The format is functional.

≈ marks a conversion by molar mass, not a printed value. Square brackets hold non-standard residues; d marks the D form. Peptide text beside a SMILES is read from it. Ava = NCCCCC(=O)O; GABA = NCCCC(=O)O; βAla = NCCC(=O)O

Broadly, the MIC is the smallest concentration in the dilution series that meets the test's criterion for growth inhibition. A high value points to a need for much substance. In the case of `CC[C@H](C)[C@H](NC(=O)[C@@H]1CCCN1C(=O)[C@H](CCCN=C(N)N)NC(=O)[C@@H]1CCCN1C(=O)[C@H](Cc1c[nH]cn1)NC(=O)[C@H](CO)NC(=O)[C@@H](NC(=O)[C@@H]1CCCN1C(=O)[C@H](CCCN=C(N)N)NC(=O)[C@@H]1CCCN1C(=O)[C@@H](NC(=O)[C@H](Cc1ccc(O)cc1)NC(=O)[C@@H]1CCCN1C(=O)[C@H](CCCN=C(N)N)NC(=O)[C@@H]1CCCN1C(=O)[C@H](CCCCN)NC(=O)CN)C(C)C)[C@@H](C)O)C(=O)N[C@@H](CCCN=C(N)N)C(=O)N[C@H](C=O)C(C)C` (H-GKPRPYVPRPTSHPRPIRV-aldehyde), 12.5 µM (≈ 27.4 µg/mL) was the least that counted as inhibitory with Escherichia coli (MIC).
As to `CC[C@H](C)[C@H](NC(=O)[C@@H]1CCCN1C(=O)[C@H](CCCN=C(N)N)NC(=O)[C@@H]1CCCN1C(=O)[C@H](Cc1c[nH]cn1)NC(=O)[C@H](CO)NC(=O)[C@@H](NC(=O)[C@@H]1CCCN1C(=O)[C@H](CCCN=C(N)N)NC(=O)[C@@H]1CCCN1C(=O)C[C@@H](CO)NC(=O)[C@H](Cc1ccc(O)cc1)NC(=O)[C@@H]1CCCN1C(=O)[C@H](CCCN=C(N)N)NC(=O)[C@@H]1CCCN1C(=O)[C@H](CCCCN)NC(=O)CN)[C@@H](C)O)C(=O)N[C@@H](CCCN=C(N)N)C(=O)N[C@H](C=O)C(C)C`, the Intact in the assay with Cell line is 31%. Further, inhibition of growth in the assay on Escherichia coli (MIC) required 3.1 µM (≈ 6.81 µg/mL).
In the assay with Escherichia coli, `CC[C@H](C)[C@H](NC(=O)CNC(=O)[C@H](Cc1ccc(O)cc1)NC(=O)[C@H](CC(=O)O)NC(=O)[C@@H](NC(=O)[C@H](CO)NC(=O)CNC(=O)[C@H](CC(=O)O)NC(=O)[C@@H](NC(=O)[C@@H](N)CC(N)=O)[C@@H](C)O)[C@@H](C)O)C(=O)N[C@@H](CC(C)C)C(=O)N[C@@H](CCC(N)=O)C(=O)N[C@H](C(=O)N[C@@H](CC(N)=O)C(=O)N[C@@H](CO)C(=O)N[C@H](C=O)CCCN=C(N)N)[C@@H](C)CC` returned an MIC greater than 100 µM.
With `CC[C@H](C)[C@H](NC(=O)[C@@H]1CCCN1C(=O)[C@H](CCCN=C(N)N)NC(=O)[C@@H]1CCCN1C(=O)[C@H](Cc1c[nH]cn1)NC(=O)[C@H](CO)NC(=O)[C@@H](NC(=O)[C@@H]1CCCN1C(=O)[C@H](CCCN=C(N)N)NC(=O)[C@@H]1CCCN1C(=O)[C@@H](NC(=O)[C@H](Cc1ccc(O)cc1)NC(=O)[C@@H]1CCCN1C(=O)[C@H](CCCN=C(N)N)NC(=O)[C@@H]1CCCN1C(=O)[C@H](CCCCN)NC(=O)CN)[C@@H](C)O)[C@@H](C)O)C(=O)N[C@@H](CCCN=C(N)N)C(=O)N[C@H](C=O)C(C)C` (H-GKPRPYTPRPTSHPRPIRV-aldehyde), the Intact with Cell line is 15%. The molecule further yielded an MIC in the assay with Escherichia coli of 1.6 µM (≈ 3.51 µg/mL).
The molecule `CC[C@H](C)[C@H](NC(=O)[C@@H]1CCCN1C(=O)[C@H](CCCN=C(N)N)NC(=O)[C@@H]1CCCN1C(=O)[C@H](Cc1c[nH]cn1)NC(=O)[C@H](CO)NC(=O)[C@@H](NC(=O)[C@@H]1CCCN1C(=O)[C@H](CCCN=C(N)N)NC(=O)[C@@H]1CCCN1C(=O)[C@H](CO)NC(=O)C[C@@H](Cc1ccc(O)cc1)NC(=O)[C@@H]1CCCN1C(=O)[C@H](CCCN=C(N)N)NC(=O)[C@@H]1CCCN1C(=O)[C@H](CCCCN)NC(=O)CN)[C@@H](C)O)C(=O)N[C@@H](CCCN=C(N)N)C(=O)N[C@H](C=O)C(C)C` had an Intact with Cell line of 2%. Also, it took 3.1 µM (≈ 6.81 µg/mL) to inhibit growth in the assay with Escherichia coli (MIC).
The like results for `CC[C@H](C)[C@H](NC(=O)[C@@H]1CCCN1C(=O)[C@H](CCCN=C(N)N)NC(=O)[C@@H]1CCCN1C(=O)[C@H](Cc1c[nH]cn1)NC(=O)[C@H](CO)NC(=O)[C@@H](NC(=O)[C@@H]1CCCN1C(=O)[C@H](CCCN=C(N)N)NC(=O)[C@@H]1CCCN1C(=O)[C@@H](CO)NC(=O)[C@@H](Cc1ccc(O)cc1)NC(=O)[C@@H]1CCCN1C(=O)[C@H](CCCN=C(N)N)NC(=O)[C@@H]1CCCN1C(=O)[C@H](CCCCN)NC(=O)CN)[C@@H](C)O)C(=O)N[C@@H](CCCN=C(N)N)C(=O)N[C@H](C=O)C(C)C` were, in that order, 17% and 25 µM (≈ 54.6 µg/mL).
In the case of `CC[C@H](C)[C@H](NC(=O)[C@@H]1CCCN1C(=O)[C@H](CCCN=C(N)N)NC(=O)[C@@H]1CCCN1C(=O)[C@H](Cc1c[nH]cn1)NC(=O)[C@H](CO)NC(=O)[C@@H](NC(=O)[C@@H]1CCCN1C(=O)[C@H](CCCN=C(N)N)NC(=O)[C@@H]1CCCN1C(=O)[C@H](CO)NC(=O)[C@H](Cc1ccccc1)NC(=O)[C@@H]1CCCN1C(=O)[C@H](CCCN=C(N)N)NC(=O)[C@@H]1CCCN1C(=O)[C@H](CCCCN)NC(=O)CN)[C@@H](C)O)C(=O)N[C@@H](CCCN=C(N)N)C(=O)N[C@H](C=O)C(C)C` (H-GKPRPFSPRPTSHPRPIRV-aldehyde), in the assay with Cell line, the Intact is reported as 19%. The lowest concentration to inhibit growth against Escherichia coli (MIC) was 3.1 µM (≈ 6.72 µg/mL).
Consider `CC[C@H](C)[C@H](NC(=O)[C@@H]1CCCN1C(=O)[C@H](CCCN=C(N)N)NC(=O)[C@@H]1CCCN1C(=O)[C@H](Cc1c[nH]cn1)NC(=O)[C@H](CO)NC(=O)[C@@H](NC(=O)[C@@H]1CCCN1C(=O)[C@H](CCCN=C(N)N)NC(=O)[C@@H]1CCCN1C(=O)[C@H](COC)NC(=O)[C@H](Cc1ccc(O)cc1)NC(=O)[C@@H]1CCCN1C(=O)[C@H](CCCN=C(N)N)NC(=O)[C@@H]1CCCN1C(=O)[C@H](CCCCN)NC(=O)CN)[C@@H](C)O)C(=O)N[C@@H](CCCN=C(N)N)C(=O)N[C@H](C=O)C(C)C` (H-GKPRPYS(Me)PRPTSHPRPIRV-aldehyde), for which the Intact in the assay on Cell line worked out at 11%. 25 µM (≈ 54.9 µg/mL) was the least that counted as inhibitory in the assay on Escherichia coli (MIC).
The matching figures for `CC[C@H](C)[C@H](NC(=O)[C@@H]1CCCN1C(=O)[C@H](CCCN=C(N)N)NC(=O)[C@@H]1CCCN1C(=O)[C@H](Cc1c[nH]cn1)NC(=O)[C@H](CO)NC(=O)[C@@H](NC(=O)[C@@H]1CCCN1C(=O)[C@H](CCCN=C(N)N)NC(=O)[C@@H]1CCCN1C(=O)[C@@H](NC(=O)[C@H](Cc1ccc(O)cc1)NC(=O)[C@@H]1CCCN1C(=O)[C@H](CCCN=C(N)N)NC(=O)[C@@H]1CCCN1C(=O)[C@H](CCCCN)NC(=O)CCCCN)[C@@H](C)O)[C@@H](C)O)C(=O)N[C@@H](CCCN=C(N)N)C(=O)N[C@H](C(=O)O)C(C)C` (H-[Ava]KPRPYTPRPTSHPRPIRV-OH): 84% and 6.3 µM (≈ 14.2 µg/mL).
The like results for `CC[C@H](C)[C@H](NC(=O)[C@@H]1CCCN1C(=O)[C@H](CCCN=C(N)N)NC(=O)[C@@H]1CCCN1C(=O)[C@H](Cc1c[nH]cn1)NC(=O)[C@H](CO)NC(=O)[C@@H](NC(=O)[C@@H]1CCCN1C(=O)[C@H](CCCN=C(N)N)NC(=O)[C@@H]1CCCN1C(=O)[C@H](CO)NC(=O)[C@@H](Cc1ccc(O)cc1)NC(=O)[C@@H]1CCCN1C(=O)[C@H](CCCN=C(N)N)NC(=O)[C@@H]1CCCN1C(=O)[C@H](CCCCN)NC(=O)CN)[C@@H](C)O)C(=O)N[C@@H](CCCN=C(N)N)C(=O)N[C@H](C=O)C(C)C` were, in that order, 16% and 6.3 µM (≈ 13.8 µg/mL).
The like results for `CC[C@H](C)[C@H](NC(=O)[C@@H]1CCCN1C(=O)[C@H](CCCN=C(N)N)NC(=O)[C@@H]1CCCN1C(=O)[C@H](Cc1c[nH]cn1)NC(=O)[C@H](CO)NC(=O)[C@@H](NC(=O)[C@@H]1CCCN1C(=O)[C@H](CCCN=C(N)N)NC(=O)[C@@H]1CCCN1C(=O)[C@@H](NC(=O)[C@H](Cc1ccc(O)cc1)NC(=O)[C@@H]1CCCN1C(=O)[C@H](CCCN=C(N)N)NC(=O)[C@@H]1CCCN1C(=O)[C@H](CCCCN)NC(=O)CCCN)C(C)C)[C@@H](C)O)C(=O)N[C@@H](CCCN=C(N)N)C(=O)N[C@H](C=O)C(C)C` (H-[GABA]KPRPYVPRPTSHPRPIRV-aldehyde) were, in that order, 76% and 6.3 µM (≈ 14 µg/mL).
For `CC[C@H](C)[C@H](NC(=O)[C@@H]1CCCN1C(=O)[C@H](CCCN=C(N)N)NC(=O)[C@@H]1CCCN1C(=O)[C@H](Cc1c[nH]cn1)NC(=O)[C@H](CO)NC(=O)[C@@H](NC(=O)[C@@H]1CCCN1C(=O)[C@H](CCCN=C(N)N)NC(=O)[C@@H]1CCCN1C(=O)[C@@H](NC(=O)[C@H](Cc1ccccc1)NC(=O)[C@@H]1CCCN1C(=O)[C@H](CCCN=C(N)N)NC(=O)[C@@H]1CCCN1C(=O)[C@H](CCCCN)NC(=O)CN)[C@@H](C)O)[C@@H](C)O)C(=O)N[C@@H](CCCN=C(N)N)C(=O)N[C@H](C=O)C(C)C` (H-GKPRPFTPRPTSHPRPIRV-aldehyde), the Intact in the assay with Cell line is 26%. This molecule yielded an MIC with Escherichia coli of 3.1 µM (≈ 6.76 µg/mL).
In the assay on Cell line, `CC[C@H](C)[C@H](NC(=O)[C@@H]1CCCN1C(=O)[C@H](CCCN=C(N)N)NC(=O)[C@@H]1CCCN1C(=O)[C@H](Cc1c[nH]cn1)NC(=O)[C@H](CO)NC(=O)[C@@H](NC(=O)[C@@H]1CCCN1C(=O)[C@H](CCCN=C(N)N)NC(=O)[C@@H]1CCCN1C(=O)[C@@H](NC(=O)[C@H](Cc1ccc(O)cc1)NC(=O)[C@@H]1CCCN1C(=O)[C@H](CCCN=C(N)N)NC(=O)[C@@H]1CCCN1C(=O)[C@H](CCCCN)NC(=O)CCN)[C@@H](C)O)[C@@H](C)O)C(=O)N[C@@H](CCCN=C(N)N)C(=O)N[C@H](C(=O)O)C(C)C` (H-[βAla]KPRPYTPRPTSHPRPIRV-OH) returned an Intact of 87%. For the same molecule, 3.1 µM (≈ 6.9 µg/mL) was the least that counted as inhibitory in the assay on Escherichia coli (MIC).
For the molecule H-GKPRPYSPRPTSHPRPIRV-OH [DROSOCIN], in the assay with Cell line, the Intact is reported as 3%. For the same molecule, the minimal inhibitory concentration (MIC) with Escherichia coli was found to be 6.3 µM.
The matching figures for `CC[C@H](C)[C@H](NC(=O)[C@@H]1CCCN1C(=O)[C@H](CCCN=C(N)N)NC(=O)[C@@H]1CCCN1C(=O)[C@H](Cc1c[nH]cn1)NC(=O)[C@H](CO)NC(=O)[C@@H](NC(=O)[C@@H]1CCCN1C(=O)[C@H](CCCN=C(N)N)NC(=O)[C@@H]1CCCN1C(=O)[C@@H](CO)NC(=O)[C@H](Cc1ccc(O)cc1)NC(=O)[C@@H]1CCCN1C(=O)[C@H](CCCN=C(N)N)NC(=O)[C@@H]1CCCN1C(=O)[C@H](CCCCN)NC(=O)CN)[C@@H](C)O)C(=O)N[C@@H](CCCN=C(N)N)C(=O)N[C@H](C=O)C(C)C`: 1% and 3.1 µM (≈ 6.77 µg/mL).
